Test results published in article PMC5513091, “A novel Alzheimer’s disease drug candidate targeting inflammation and fatty acid metabolism” (Alzheimer's Research & Therapy, 2017).

Tested on: plasma metabolites
Experiment: Metabolomic analysis of plasma
Format: in vivo, mice
Conditions: AD mice fed CAD-31 200 ppm 3 months vs AD
Procedure: Metabolomic analyses were conducted at Metabolon (Durham, NC, USA) as described previously. For statistical analyses and data display, any missing values were assumed to be below the limits of detection and imputed with the compound minimum (minimum value imputation). An estimate of the FDR (Q value) was calculated to take into account the multiple comparisons that normally occur in metabolomics-based studies, with Q < 0.05 used as an indication of high confidence in a result. The MetaboAnalyst tool was used to generate heat maps.

## Cc1ccc(N(/N=C/c2cccc(OC(F)(F)F)c2)C(=O)C(F)(F)F)c(C)c1 [CAD-31]
  1,2-dipalmitoyl-GPC (16:0/16:0) Fold Change AD+31/AD: 1.12
  1-arachidonoyl-GPC (20:4n6)* Fold Change AD+31/AD: 1.17
  1-myristoylglycerol (14:0) Fold Change AD+31/AD: 0.94
  1-oleoylglycerol (18:1) Fold Change AD+31/AD: 1.17
  1-palmitoyl-2-arachidonoyl-GPC (16:0/20:4n6) Fold Change AD+31/AD: 1.19
  1-palmitoyl-2-stearoyl-GPC (16:0/18:0) Fold Change AD+31/AD: 1.23
  1-stearoyl-GPE (18:0) Fold Change AD+31/AD: 1.22
  2-palmitoylglycerol (16:0) Fold Change AD+31/AD: 1.22
  3-acetylphenol sulfate Fold Change AD+31/AD: 0.59
  3-ethylphenylsulfate Fold Change AD+31/AD: 2.39
  3-hydroxy-3-methylglutarate Fold Change AD+31/AD: 1.53
  3-hydroxybutyrate (BHBA) Fold Change AD+31/AD: 1.21
  3-hydroxypyridine sulfate Fold Change AD+31/AD: 1.07
  3-indoxyl sulfate Fold Change AD+31/AD: 1.15
  4-hydroxyhippurate Fold Change AD+31/AD: 0.73
  4-hydroxyphenylpyruvate Fold Change AD+31/AD: 1.05
  5-hydroxyindoleacetate Fold Change AD+31/AD: 1.01
  5-oxoproline Fold Change AD+31/AD: 1.02
  7-ketodeoxycholate Fold Change AD+31/AD: 0.18
  9,10-DiHOME Fold Change AD+31/AD: 0.99
  10-heptadecenoate (17:1n7) Fold Change AD+31/AD: 0.84
  10-nonadecenoate (19:1n9) Fold Change AD+31/AD: 0.87
  10-undecenoate (11:1n1) Fold Change AD+31/AD: 0.41
  15-methylpalmitate Fold Change AD+31/AD: 0.68
  17-methylstearate Fold Change AD+31/AD: 0.84
  N2-acetyllysine Fold Change AD+31/AD: 1.12
  N-acetyl-3-methylhistidine* Fold Change AD+31/AD: 0.86
  N-acetylmethionine Fold Change AD+31/AD: 1.14
  N-acetylphenylalanine Fold Change AD+31/AD: 1.1
  N-acetylserine Fold Change AD+31/AD: 1.11
  N-carbamoylaspartate Fold Change AD+31/AD: 1.97
  N-delta-acetylornithine Fold Change AD+31/AD: 1.22
  N-palmitoyl-sphinganine (d18:0/16:0) Fold Change AD+31/AD: 1.49
  N-stearoyl-sphingosine (d18:1/18:0)* Fold Change AD+31/AD: 1.5
  acetylcarnitine Fold Change AD+31/AD: 0.97
  alpha-tocopherol Fold Change AD+31/AD: 1.29
  arabonate/xylonate Fold Change AD+31/AD: 1.47
  asparagine Fold Change AD+31/AD: 0.97
  beta-muricholate Fold Change AD+31/AD: 0.41
  caffeic acid sulfate Fold Change AD+31/AD: 1.19
  carnosine Fold Change AD+31/AD: 0.68
  chenodeoxycholate Fold Change AD+31/AD: 0.26
  choline phosphate Fold Change AD+31/AD: 1.11
  creatine Fold Change AD+31/AD: 1.02
  dihydroorotate Fold Change AD+31/AD: 1.19
  dopamine sulfate (2) Fold Change AD+31/AD: 2.01
  equol glucuronide Fold Change AD+31/AD: 0.22
  ergothioneine Fold Change AD+31/AD: 0.44
  erythritol Fold Change AD+31/AD: 1.1
  erythronate* Fold Change AD+31/AD: 1.14
  gamma-glutamylglutamate Fold Change AD+31/AD: 0.97
  gamma-glutamylglutamine Fold Change AD+31/AD: 0.99
  gamma-glutamylleucine Fold Change AD+31/AD: 1.02
  gamma-glutamylmethionine Fold Change AD+31/AD: 1.04
  gamma-glutamylphenylalanine Fold Change AD+31/AD: 0.97
  gamma-glutamylthreonine Fold Change AD+31/AD: 1.03
  gamma-glutamyltryptophan Fold Change AD+31/AD: 0.78
  gamma-glutamyltyrosine Fold Change AD+31/AD: 0.92
  glucuronate Fold Change AD+31/AD: 1.18
  glutamate Fold Change AD+31/AD: 0.99
  glutathione, oxidized (GSSG) Fold Change AD+31/AD: 1.46
  glycosyl-N-palmitoyl-sphingosine (d18:1/16:0) Fold Change AD+31/AD: 1.29
  glycosyl-N-stearoyl-sphingosine (d18:1/18:0) Fold Change AD+31/AD: 1.42
  gulonate* Fold Change AD+31/AD: 1.59
  hexanoylglycine Fold Change AD+31/AD: 1.03
  indoleacetylglycine Fold Change AD+31/AD: 0.89
  isobutyrylcarnitine Fold Change AD+31/AD: 2.26
  linoleate (18:2n6) Fold Change AD+31/AD: 0.98
  margarate (17:0) Fold Change AD+31/AD: 0.9
  methionine sulfoxide Fold Change AD+31/AD: 1.26
  methylmalonate (MMA) Fold Change AD+31/AD: 1.15
  o-cresol sulfate Fold Change AD+31/AD: 1.63
  oleoylcarnitine Fold Change AD+31/AD: 0.94
  palmitoleoylcarnitine* Fold Change AD+31/AD: 0.97
  palmitoyl dihydrosphingomyelin (d18:0/16:0)* Fold Change AD+31/AD: 1.32
  palmitoyl sphingomyelin (d18:1/16:0) Fold Change AD+31/AD: 1.22
  palmitoyl-palmitoyl-glycerol (16:0/16:0) [1]* Fold Change AD+31/AD: 1.17
  pentadecanoate (15:0) Fold Change AD+31/AD: 0.95
  phenol sulfate Fold Change AD+31/AD: 1.03
  phenylpropionylglycine Fold Change AD+31/AD: 2.89
  phosphoethanolamine Fold Change AD+31/AD: 1.05
  pyridoxal Fold Change AD+31/AD: 1.22
  pyridoxate Fold Change AD+31/AD: 1.49
  pyruvate Fold Change AD+31/AD: 1.04
  ribonate Fold Change AD+31/AD: 1.53
  sphinganine-1-phosphate Fold Change AD+31/AD: 1.45
  sphingosine Fold Change AD+31/AD: 1.35
  stearidonate (18:4n3) Fold Change AD+31/AD: 0.87
  suberate (octanedioate) Fold Change AD+31/AD: 1.33
  sucrose Fold Change AD+31/AD: 2.83
  tartronate (hydroxymalonate) Fold Change AD+31/AD: 0.99
  taurine Fold Change AD+31/AD: 0.91
  threonine Fold Change AD+31/AD: 1.08
  tryptophan Fold Change AD+31/AD: 0.91
  ursodeoxycholate Fold Change AD+31/AD: 0.23
